# From patent publication US20110196000A1, “Use of succinate dehydrogenase (SDH) inhibitors in the treatment of plant species from the family of the true grasses” (Bayer CropScience AG, priority 2010, published 2011)
# Key:
# Type in all cases: in vivo
# [1] = tested on: infection-free wheat plants of the cultivar Passat; assay: Glasshouse trial: temperature of ears and leaves as measure of transpiration activity
# Protocol: (§1) In a glasshouse trial under controlled conditions, the effect of bixafen was investigated on the physiology, morphology and abiotic stress tolerance of infection-free wheat plants of the cultivar […] plants were grown in 10-litre containers over a period of 4 months. The substrate used was standard earth type ED 73 (Fröndenberg, Germany)+C-Horizont+Sand (4:2:1). The supply of nutrient to the plants took place by feeding with a 0.2% strength Flory 2 liquid fertilizer solution (from Euflor, Munich) once every two weeks. The plants were supplied with water as required. In each component of the trial, 10 repetitions were carried out.
# [2] = tested on: infection-free wheat plants of the cultivar Passat; assay: Glasshouse trial: size of the flag leaf; conditions: at BBCH 83-85
# Protocol: (§2) In a glasshouse trial under controlled conditions, the effect of bixafen was investigated on the physiology, morphology and abiotic stress tolerance of infection-free wheat plants of the cultivar […] plants were grown in 10-litre containers over a period of 4 months. The substrate used was standard earth type ED 73 (Fröndenberg, Germany)+C-Horizont+Sand (4:2:1). The supply of nutrient to the plants took place by feeding with a 0.2% strength Flory 2 liquid fertilizer solution (from Euflor, Munich) once every two weeks. The plants were supplied with water as required. In each component of the trial, 10 repetitions were carried out. To prevent infestation with powdery mildew, Proquinazid (Talius® was applied once. The incidence of aphids and spider mites was avoided by treatments with Karate®, Bulldock® and Sumicidin®. The products under test were applied to the plants, in the form of sequential spray sequences (BBCH 39 and 59). The spray volume was 300 l of water per hectare. [table] Morphological parameters measured, additionally, were the length and width, i.e. the size of the flag leaf. This was greatest with the succinate dehydrogenase (SDH) inhibitor bixafen, in comparison to the other comparison fungicides.
# wheat variety Ritmo [3] = assay: Plot trial in Germany: green leaf area by visual scoring; conditions: sprays at BBCH 39 and 59
# Protocol: In Germany a plot trial was set up with the wheat variety Ritmo in order to investigate the effect of bixafen on the physiology, morphology and abiotic stress tolerance of wheat plants under realistic agricultural conditions. The products under test were applied to the plants, in the form of sequential spray sequences (BBCH 39 and 59). The spray volume was 400 l of water per hectare. In each trial component, 5 repetitions were carried out. [table] The duration of green coloration of the leaf area was captured by regular visual scoring of the fraction of green leaf area.
# wheat variety Ritmo [4] = assay: Plot trial: chlorophyll content of leaves (pigment extraction method of Ziegler and Ehle)
# [5] = tested on: infection-free wheat plants of the cultivar Passat; assay: Glasshouse trial: yield components; conditions: glasshouse, sprays at BBCH 39 and 59
# [6] = tested on: infection-free wheat plants of the cultivar Passat; assay: Glasshouse trial: time of heading (ear emergence); parameters: time of heading of wheat (ears emerged): unit not given here
# Protocol: as §1
# [7] = tested on: infection-free wheat plants of the cultivar Passat; assay: Glasshouse trial: green leaf area by visual scoring; conditions: glasshouse
# Protocol: as §2, with “The duration” for “Morphological parameters measured, additionally, were the length and width, i.e. the size”, “green coloration of the leaf area” for “flag leaf. This”, “captured on” for “greatest with”, “basis of regular visual scoring of” for “succinate dehydrogenase (SDH) inhibitor bixafen, in comparison to”, “fraction of the green leaf area.” for “other comparison fungicides.”
# [8] = tested on: infection-free wheat plants of the cultivar Passat; assay: Glasshouse trial: gas exchange activity of wheat ears; conditions: development stage BBCH 75
# Protocol: as §1
# wheat variety Ritmo [9] = assay: Plot trial: yield components; conditions: sprays at BBCH 39 and 59
# [10] = 7 days after second fungicide application
# [11] = 14 days after second fungicide application
# [12] = 21 days after second fungicide application
# [13] = 28 days after second fungicide application
# [14] = 35 days after second fungicide application
# [15] = 42 days after second fungicide application
# [16] = 68 days after second fungicide application (so in the source)
# [17] = 75 days after second fungicide application (so in the source)
# [18] = 82 days after second fungicide application (so in the source)
# [19] = 89 days after second fungicide application (so in the source)
# [20] = 96 days after second fungicide application (so in the source)
# [21] = 103 days after second fungicide application (so in the source)
# [22] = 110 days after second fungicide application (so in the source)
# [23] = 117 days after second fungicide application (so in the source)
smiles,measurement,setting,value
CO/N=C(/C1=NOCCO1)c1ccccc1Oc1ncnc(Oc2ccccc2Cl)c1F [Fluoxastrobin],Temperature (as a measure of the transpiration activity),"[1]; BBCH 75, ear",23.1 °C
same,Temperature (as a measure of the transpiration activity),"[1]; BBCH 75, leaf",22.3 °C
same,Temperature (as a measure of the transpiration activity),"[1]; BBCH 80, ear",18.9 °C
same,Temperature (as a measure of the transpiration activity),"[1]; BBCH 80, leaf",16.5 °C
same,Temperature (as a measure of the transpiration activity),"[1]; BBCH 85, ear",24.8 °C
same,Temperature (as a measure of the transpiration activity),"[1]; BBCH 85, leaf",23.4 °C
same,Temperature (as a measure of the transpiration activity),"[1]; BBCH 90, ear",23.9 °C
same,Temperature (as a measure of the transpiration activity),"[1]; BBCH 90, lear (so in the source)",22.7 °C
same,Length of the flag leaf,[2],25.6 cm
same,Width of the flag leaf,[2],1.4 cm
same,Area of the flag leaf,[2]; calculated using the formula A = 0.67 × length × width,24.01 cm^2
same,Area [rel.] of the flag leaf,[2]; untreated = 100,110 rel.
same,green leaf area of the flag leaf,wheat variety Ritmo [3]; [10],98.7 % leaf area
same,green leaf area of the second-from-top leaf (F-1),wheat variety Ritmo [3]; [10],98.8 % leaf area
same,green leaf area of the third-from-top leaf (F-2),wheat variety Ritmo [3]; [10],96.3 % leaf area
same,green leaf area of the flag leaf,wheat variety Ritmo [3]; [11],98.7 % leaf area
same,green leaf area of the second-from-top leaf (F-1),wheat variety Ritmo [3]; [11],98.0 % leaf area
same,green leaf area of the third-from-top leaf (F-2),wheat variety Ritmo [3]; [11],95.5 % leaf area
same,green leaf area of the flag leaf,wheat variety Ritmo [3]; [12],98.3 % leaf area
same,green leaf area of the second-from-top leaf (F-1),wheat variety Ritmo [3]; [12],96.1 % leaf area
same,green leaf area of the third-from-top leaf (F-2),wheat variety Ritmo [3]; [12],92.1 % leaf area
same,green leaf area of the flag leaf,wheat variety Ritmo [3]; [13],95.8 % leaf area
same,green leaf area of the second-from-top leaf (F-1),wheat variety Ritmo [3]; [13],93.5 % leaf area
same,green leaf area of the third-from-top leaf (F-2),wheat variety Ritmo [3]; [13],88.5 % leaf area
same,green leaf area of the flag leaf,wheat variety Ritmo [3]; [14],63.0 % leaf area
same,green leaf area of the second-from-top leaf (F-1),wheat variety Ritmo [3]; [14],47.0 % leaf area
same,green leaf area of the third-from-top leaf (F-2),wheat variety Ritmo [3]; [14],31.5 % leaf area
same,green leaf area of the flag leaf,wheat variety Ritmo [3]; [15],23.7 % leaf area
same,green leaf area of the second-from-top leaf (F-1),wheat variety Ritmo [3]; [15],9.8 % leaf area
same,green leaf area of the third-from-top leaf (F-2),wheat variety Ritmo [3]; [15],1.9 % leaf area
same,green leaf area of the second-from-top leaf (F-1),wheat variety Ritmo [3]; 49 days after second fungicide application,0 % leaf area
same,Chlorophyll content,"wheat variety Ritmo [4]; BBCH 75 (mature milk), leaf F",1924 µg/g
same,Chlorophyll content,"wheat variety Ritmo [4]; BBCH 75 (mature milk), leaf F-1",1671 µg/g
same,Chlorophyll content,"wheat variety Ritmo [4]; BBCH 75 (mature milk), leaf F-2",1126 µg/g
same,Chlorophyll content,"wheat variety Ritmo [4]; BBCH 85 (mature dough), leaf F",630 µg/g
same,Chlorophyll content,"wheat variety Ritmo [4]; BBCH 85 (mature dough), leaf F-1",534 µg/g
same,Chlorophyll content,"wheat variety Ritmo [4]; BBCH 85 (mature dough), leaf F-2",415 µg/g
same,Ears/pot,[5],41.0
same,Harvest Index,[5],29.0%
same,Kernels/ear,[5],21.9
same,Straw,[5],74.5 g/pot
same,TKM (thousand-kernel mass),[5],34.3 g
same,Yield,[5],30.5 g/pot
same,time of heading of wheat (ears emerged),[6]; 45 days after sowing,11.4
same,time of heading of wheat (ears emerged),[6]; 50 days after sowing,33.1
same,time of heading of wheat (ears emerged),[6]; 55 days after sowing,43.8
same,time of heading of wheat (ears emerged),[6]; 60 days after sowing,49.9
same,time of heading of wheat (ears emerged),[6]; 65 days after sowing,61.1
same,time of heading of wheat (ears emerged),[6]; 70 days after sowing,76.4
same,time of heading of wheat (ears emerged),[6]; 75 days after sowing,87.8
same,time of heading of wheat (ears emerged),[6]; 80 days after sowing,93.1
same,time of heading of wheat (ears emerged),[6]; 85 days after sowing,97.1
same,green leaf area of the flag leaf (F),[7]; [16],100 % leaf area
same,green leaf area of the second-from-top leaf (F-1),[7]; [16],100 % leaf area
same,green leaf area of the third-from-top leaf (F-2),[7]; [16],100 % leaf area
same,green leaf area of the flag leaf (F),[7]; [17],100 % leaf area
same,green leaf area of the second-from-top leaf (F-1),[7]; [17],100 % leaf area
same,green leaf area of the third-from-top leaf (F-2),[7]; [17],95 % leaf area
same,green leaf area of the flag leaf (F),[7]; [18],100 % leaf area
same,green leaf area of the second-from-top leaf (F-1),[7]; [18],95 % leaf area
same,green leaf area of the third-from-top leaf (F-2),[7]; [18],82 % leaf area
same,green leaf area of the flag leaf (F),[7]; [19],95 % leaf area
same,green leaf area of the second-from-top leaf (F-1),[7]; [19],84 % leaf area
same,green leaf area of the third-from-top leaf (F-2),[7]; [19],54 % leaf area
same,green leaf area of the flag leaf (F),[7]; [20],85 % leaf area
same,green leaf area of the second-from-top leaf (F-1),[7]; [20],56 % leaf area
same,green leaf area of the third-from-top leaf (F-2),[7]; [20],29 % leaf area
same,green leaf area of the flag leaf (F),[7]; [21],60 % leaf area
same,green leaf area of the second-from-top leaf (F-1),[7]; [21],30 % leaf area
same,green leaf area of the third-from-top leaf (F-2),[7]; [21],18 % leaf area
same,green leaf area of the flag leaf (F),[7]; [22],37 % leaf area
same,green leaf area of the second-from-top leaf (F-1),[7]; [22],18 % leaf area
same,green leaf area of the third-from-top leaf (F-2),[7]; [22],7 % leaf area
same,green leaf area of the flag leaf (F),[7]; [23],12 % leaf area
same,green leaf area of the second-from-top leaf (F-1),[7]; [23],6 % leaf area
same,green leaf area of the third-from-top leaf (F-2),[7]; [23],0 % leaf area
same,Photosynthesis (gas exchange activity of wheat ears),[8],−2.44 a CO2 per ear
same,Respiration (gas exchange activity of wheat ears),[8],2.96 b CO2 per ear
same,Ears/m^2,wheat variety Ritmo [9],409
same,Harvest Index,wheat variety Ritmo [9],58.1
same,Straw,wheat variety Ritmo [9],581 g m^−2
same,TKM (thousand-kernel mass),wheat variety Ritmo [9],45.8 g
same,Yield,wheat variety Ritmo [9],8.2 t ha^−1
